In ChEMBL document CHEMBL5335828, “Sacculatane Diterpenoids from the Liverwort Plagiochila nitens Collected in China” (J Nat Prod, 2024) one finds IC50 and MIC data, which are given here for 8 compounds.

Converted amounts (≈) assume the structure as drawn.

Test system in the first assay: not listed separately
In words: Cytotoxicity against mouse Hepa1c1c7 cells incubated for 24 hrs by MTT assay. It is filed as functional, cell-based. As to conditions: Hepa-1c1c7, 24 h.
On to `CC(=O)O[C@H]1CC[C@@]23CO[C@](C)(CC[C@H]2[C@]1(C)CC[C@H](O)C(C)(C)O)[C@@H]3CO`, for which the 50% inhibitory concentration (IC50) (commonly the concentration that gives 50% inhibition) is over 50 µM. The same measure, in the same setting: next, `C=C1CC[C@H]2[C@](C)(CC[C@H](O)C(C)(C)O)[C@@H](OC(C)=O)CC[C@]2(CO)[C@H]1CO`: over 50 µM; `C=C1C[C@H](O)[C@@H]2C3(CCC[C@@]2(C)CCC=C(C)C)[C@H](O)OC[C@@H]13` (some centres undefined): over 50 µM; `C=C1CC[C@H]2[C@](C)(CC[C@H](O)C(C)(C)O)CCC[C@]2(CO)[C@H]1CO`: over 50 µM. Consider `C=C1CC[C@H]2[C@](C)(CC[C@H](OC(C)=O)C(C)(C)O)[C@@H](OC(C)=O)CC[C@]2(CO)[C@H]1CO`, for which the half-maximal inhibitory concentration (IC50) was over 50 µM. On to `C=C1CC[C@H]2[C@](C)(CC[C@H](O)C(C)(C)O)CCC[C@]2(COC(C)=O)[C@H]1CO`, for which the 50% inhibitory concentration (IC50) was over 50 µM.

Turning to `COC(=O)C1=CO[C@H]2OC(=O)[C@H]3[C@H]2[C@H]1[C@@H]1[C@H](C[C@H]3OC(C)=O)C1(C)C`, the half-inhibitory concentration (IC50) is over 50 µM. The compound `C=C1CC[C@H]2[C@](C)(CC[C@H](OC(C)=O)C(C)(C)O)CCC[C@]2(CO)[C@H]1CO` registered an IC50 of over 50 µM.

The next assay has as its system Candida albicans. In words: Antifungal activity against Candida albicans DSY654 harboring CDR1-CDR2 double mutant assessed as inhibition of fungal growth incubated for 24 hrs by alamar blue assay. It is filed as functional.
Settings: not given
On the technique in general: The colour change of resazurin is a common sign of viable cells or microbes.
For the compound `COC(=O)C1=CO[C@H]2OC(=O)[C@H]3[C@H]2[C@H]1[C@@H]1[C@H](C[C@H]3OC(C)=O)C1(C)C`, the MIC (usually the smallest concentration in the dilution series that meets the test's criterion for growth inhibition) was 16 µg/mL (≈ 45.7 µM).
